Source: patent US20210190799A1, “METHOD FOR DIAGNOSING LIVER DISEASES AND METHOD FOR SCREENING THERAPEUTIC AGENT FOR LIVER DISEASES USING CHANGES IN EXPRESSION OF TM4SF5 PROTEIN” (SEOUL NATIONAL UNIVERSITY R&DB FOUNDATION, priority 2017, published 2021)
Positions count from the first letter of the chain named.

How the values were obtained:
SOCS3 gene = assay: SOCS3 shRNA in primary hepatocytes, Western blotting; type: cell-based, mouse; settings: FIG. 8E
Description: The primary hepatocytes isolated from the normal mouse (52 weeks old) were transfected with SOCS3 (NM_174466) shRNA (shSOCS3, sense 5′ […]-3′ SEQ. ID. NO: 111; antisense 5′ […]-3′ SEQ. ID. NO: 112) under the same conditions and methods as described in Example <4-1> to prepare hepatocytes wherein the expression of SOCS3 gene was suppressed, and the expression changes of SREBP1 and SOCS3 proteins and the phosphorylation changes of STAT3 were confirmed by Western blotting.

[1] = system: STAT3 phosphorylation and laminin protein expression; assay: Western blotting of separated liver tissue of the liver disease model mouse treated with IL-6; type: cell-based; settings: FIG. 26A
Procedure: (§1) Particularly, a lysis buffer [50 mM Tris-HCl (pH 7.4), 1% NP40, 0.25% sodium dioxycholate, 150 mM NaCl, 1 mM EDTA], SDS (sodium dodecyl sulfate), Na3O4V and protease inhibitor cocktail (GenDepot) were added to the obtained liver tissue, which was left at 4° C. for 15 minutes to lyse the tissue. The lysate was centrifuged for 30 minutes under the conditions of 13,000 rpm and 4° C. to obtain a supernatant. The proteins present in the supernatant were quantified using BCA reagent (Thermo Scientifics). 4× sample buffer [4 ml of 100% glycerol, 2.4 ml of Tris-HCl (pH 6.8), 0.8 g of SDS, 4 mg of brominated phenol blue, 0.4 ml of β-mercaptoethanol and 3.1 ml of H2O, final volume: 10 ml] was added thereto, which was boiled at 100° C. for 5 minutes. SDS-PAGE was performed, and the proteins were transferred to a nitrocellulose membrane (Whatman). The membrane was pretreated in a solution containing 5% skim milk for 1 hour, and reacted with the antibodies against laminin (Abcam, UK), ACC1 (Cell Signalling, USA), SREBP1 precursor (Santa cruz, USA), mature SREBP1 (Santa cruz, USA), MTP (Santa cruz, USA), PPARα (Santa cruz, USA), pY^706STAT3 (Millipore, USA), STAT3 (Santa cruz, USA), α-tubulin (Sigma, USA) and TM4SF5 (J Clin Invest. 2008 April; 118(4): 1354-66) as the primary antibodies at 4° C. for 15 hours. Then, the membrane was reacted with the secondary antibody, and developed on an X-ray film using an ECL solution (Pierce, USA).
In addition, the separated liver tissue was treated with IL-6 and Western blotting was performed as described above to confirm whether the increased STAT3 phosphorylation and laminin protein expression were dependent on IL-6. […] Therefore, it was confirmed that the expressions of laminin and laminin γ2 were increased depending on TM4SF5 protein.

fat-related genes = assay: Real-time PCR of fat-related genes in normal hepatocytes treated with IL-6; type: cell-based, C57BL/6 normal mouse; settings: FIGS. 4B and 4C
[2] = target: T1, short extracellular loop (SEL) mutant of TM4SF5 protein (Homo sapiens, UniProt O14894); assay: Arginine binding to short extracellular loop (SEL) mutant of TM4SF5; settings: FIG. 15F
T1 construct: a short extracellular loop (SEL) fragment mutant comprising the 31st to 42nd amino acid residues from the N-terminus; made in house
Procedure: (§2) First, HEK293FT cells (Thermo, USA) were prepared by culturing in 5% CO2 at 37° C. using DMEM containing 10% FBS and antibiotics. The prepared cells were distributed in 150 mm plates and cultured to the density of 60%, which were transfected with the construct expressing TM4SF5, MetaP2, Castrol, TM4SF1, TM4SF4 and TM4SF5 proteins constructed in Example 11 using PEI. Two days after the transfection, the desired protein was precipitated under the same conditions and methods as described in Example 11 using the beads coated with streptavidin. The precipitate was added with 10 μM [3H]-arginine (American radiolabeled chemicals, USA), followed by reaction at 4° C. for 1 hour. At this time, a sample in which 10 mM of L-arginine was added to the same amount of beads was used as the control. Upon completion of the reaction, the beads were washed 3 times with lysis buffer, to which 2 m ? of scintillation cocktail (Ultima gold, Perkin Elmer, USA) was added. The mixture was vortexed and analyzed using a liquid scintillation counter (Tri-Carb, Perkin Elmer, USA).
(§3) First, a short extracellular loop (SEL) fragment mutant comprising the 31st to 42nd amino acid residues from the N-terminus of the amino acid sequence constituting TM4SF5 protein (SEQ. ID. NO: 1) and a long extracellular loop (LEL) fragment mutant comprising the 113th to 157th amino acid residues from the N-terminus were prepared. […]

[3] = target: T2, TM4SF5 mutant, 124th to 129th amino acid residues (Homo sapiens, UniProt O14894, E129A/F128S/G125A/H127A/W124A/Y126S); assay: Arginine binding to TM4SF5 mutants of the 124th to 129th amino acid residues; settings: FIG. 15G
T2 construct: made in house
T2 sequence (O14894 1-197 W124A/G125A/Y126S/H127A/F128S/E129A): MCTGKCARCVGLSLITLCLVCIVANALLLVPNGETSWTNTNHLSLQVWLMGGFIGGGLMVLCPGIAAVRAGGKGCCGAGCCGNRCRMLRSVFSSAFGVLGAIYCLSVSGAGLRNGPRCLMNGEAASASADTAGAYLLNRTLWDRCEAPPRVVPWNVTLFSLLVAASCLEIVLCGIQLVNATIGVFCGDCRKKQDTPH
Procedure: as §2, §3

TM4SF5 protein = target: T3, TM4SF5 protein (Homo sapiens, UniProt O14894); assay: [3H]-arginine binding to precipitated TM4SF5 protein (liquid scintillation)
T3 construct: in addition to the wild type of TM4SF5 protein (WT, full length); made in house; host or cells: HEK293FT cells, transient transfection with PEI, pull-down on streptavidin-coated beads
T3 sequence (O14894 1-197): T2 sequence (O14894 1-197 W124A/G125A/Y126S/H127A/F128S/E129A) with A124W, A125G, S126Y, A127H, S128F, A129E
Procedure: as §2
An experiment was performed to confirm whether the binding of TM4SF5 protein and arginine confirmed in Example <12-2> was concentration-dependent. The experiment was performed under the same conditions and methods as described in Example <12-2>, except that HEK293FT cells transformed with TM4SF5 protein were used and 0, 0.01, 0.05. 0.1 or 0.5 mM L-arginine was added.

[4] = High arginine diet for 10 weeks: body weight and liver fat (H&E); type: in vivo, mouse; settings: for weight gain compared to the mouse fed a normal diet: high arginine diet 10 weeks, FIG. 17A
Procedure: Particularly, the TM4SF5 gene KO mouse prepared in Example <7-1> was fed L-arginine (40 g/kg of mouse body weight) for 10 weeks.
The liver tissue was extracted from the TM4SF5 gene KO mouse fed a high arginine diet in Example <13-1>, and H&E staining was performed using the method described above.

Castor1 protein = target: T4, Castor1 protein (Homo sapiens, UniProt Q8WTX7); assay: [3H]-arginine binding to precipitated Castor1 protein
T4 construct: made in house; host or cells: HEK293FT cells, transient transfection with PEI, pull-down on streptavidin-coated beads
T4 sequence (Q8WTX7 1-329): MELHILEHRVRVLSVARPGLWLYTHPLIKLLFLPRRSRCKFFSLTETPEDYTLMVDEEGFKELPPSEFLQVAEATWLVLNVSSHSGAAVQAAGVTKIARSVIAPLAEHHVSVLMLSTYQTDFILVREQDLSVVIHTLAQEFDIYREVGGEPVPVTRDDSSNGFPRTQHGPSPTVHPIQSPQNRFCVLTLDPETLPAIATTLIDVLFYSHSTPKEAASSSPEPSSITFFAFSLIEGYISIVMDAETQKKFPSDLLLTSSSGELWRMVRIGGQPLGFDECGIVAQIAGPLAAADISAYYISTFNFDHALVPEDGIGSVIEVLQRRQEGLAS
Procedure: as §2

c-Src protein = target: T5, c-Src protein (Mus musculus, UniProt P05480); assay: Western blotting of separated liver tissue of the liver disease model mouse treated with c-Src inhibitor PP2 or control PP3; type: cell-based; settings: FIG. 26C
T5 construct: from tissue; host or cells: liver tissue / hepatocytes of CCl4-treated BALB/C mice
Procedure: as §1, with “Then, the membrane was reacted with the secondary antibody, and developed on an X-ray film using an ECL solution (Pierce, USA).” left out

liver tissue [5] = assay: Liver cancer induced by injecting diethylnitrosamine (DEN); type: in vivo; settings: transgenic mouse
Procedure: The exacerbation process of liver disease was confirmed using the transgenic mouse as follows. Particularly, the transgenic mouse was induced with liver cancer by injecting diethylnitrosamine (DEN). The liver tissue was extracted from the mouse, and H&E staining was performed. As a result, it was confirmed that liver cancer was induced (FIG. 31A). It was also confirmed that the phosphorylation of STAT3 protein and the expression of laminin were increased as the expression of TM4SF5 protein increased (FIG. 31B).

liver tissue [6] = assay: Liver disease mouse model induced by carbon tetrachloride (CCl4); type: in vivo, BALB/C mice
Procedure: First, a mouse model in which liver disease was induced by intraperitoneally injecting carbon tetrachloride (CCl4) once a week for 1, 4 or 16 weeks at the concentration of 1 mg/kg to 4-week-old BALB/C mice (Orient Bio, Korea) was prepared.
On the other hand, after administering CCl4 to the TM4SF5 gene KO mouse prepared in Example <7-1> as described above, the liver tissue was obtained and Mason's trichrome staining was performed, and the results are shown in FIG. 22C. As a result, it was confirmed that the accumulation of collagen was decreased in the TM4SF5 gene KO mouse compared to the control group (FIG. 22C).

[7] = primary hepatic epithelial cells
[8] = administered for 4 or 16 weeks, FIG. 22A

Q: For “shSOCS3: SOCS3 shRNA, SEQ. ID. NO: 111 (sense) and 112 (antisense) (sense CAACAUCUCUGUCGGAAGAUU; antisense UCUUCCGACAGAGAUGUUGUU; listed as RNA, chemistry not given here)”, which “amount of SREBP1 protein” value (SOCS3 gene; [7]) is on record?
A: Its value is “decreases”.

Q: And the “phosphorylation of STAT3 protein” value (SOCS3 gene; [7])?
A: The value was “increases”.

Q: What about the “expression of SOCS3 gene” value (SOCS3 gene; primary hepatocytes) of the same compound?
A: The value was “decreased”.

Q: Which “expression of collagen 1” value [1] does the source give for “IL-6: a cytokine associated with fatty liver” here?
A: The value was “increased”.

Q: And the “level of laminin protein” value [1]?
A: The value was “not changed”.

Q: And the “phosphorylation of STAT3 protein” value [1]?
A: The value was “increased”.

Q: What about the “expressions of Srebp1, Srebp2, Fasn, CD36, Fabp1, Vldlr and Ldlr, the fat-related genes” value (fat-related genes) of the same compound?
A: Its value is “increased”.

Q: What does the source list for N=C(N)NCCC[C@H](N)C(=O)O [arginine, L-arginine]?
A: binding to SEL mutant of TM4SF5 protein [2]: not bound; binding to TM4SF5 mutant of 124th to 129th residues [3]: not bound; concentration dependence of binding to TM4SF5 protein (TM4SF5 protein; 0, 0.01, 0.05, 0.1 or 0.5 mM L-arginine, FIGS. 15D and 15E): concentration-dependently; binding to TM4SF5 protein (TM4SF5 protein; 10 μM [3H]-arginine, 4° C., 1 hour, FIGS. 15B and 15C): directly bound; binding of TM4SF5 compared with control protein MetaP2 (TM4SF5 protein; FIG. 15B): more strongly; binding of TM4SF5 compared with TM4SF1 or TM4SF4 (TM4SF5 protein; FIG. 15C): more strongly; weight gain of each mouse in comparison to the starting point of the high arginine diet ([4]; TM4SF5 gene KO mouse, FIG. 17B): significantly decreased; fat accumulation in the liver tissue, H&E staining ([4]; TM4SF5 gene KO mouse, FIG. 17C): relatively suppressed; weight gain compared to the mouse fed a normal diet ([4]; TM4SF5 gene KO mouse): about 7%; fatty liver, H&E staining of liver tissue ([4]; normal mouse, FIG. 17C): fatty liver was induced; weight gain compared to the mouse fed a normal diet ([4]; normal mouse): about 25%; binding of Castor1 compared with control protein MetaP2 (Castor1 protein; FIG. 15B): more strongly; binding to Castor1 protein (Castor1 protein; FIGS. 15B and 15C): directly bound

Q: Which “expression of laminin protein” value (c-Src protein) does the source give for CC(C)(C)n1nc(-c2ccc(Cl)cc2)c2c(N)ncnc21 [PP2] here?
A: Its value is “suppressed”.

Q: What about the “phosphorylation of STAT3 protein” value (c-Src protein) of the same compound?
A: Its value is “suppressed”.

Q: Which results are given for CCN(CC)N=O [diethylnitrosamine]?
A: liver cancer, H&E staining (liver tissue [5]; FIG. 31A): induced; phosphorylation of STAT3 protein and expression of laminin (liver tissue [5]; FIG. 31B): increased

Q: Which “expression of TM4SF5 protein, phosphorylation of STAT3 protein and level of ECM in the liver tissue” value (liver tissue [6]; FIG. 23A) does the source give for ClC(Cl)(Cl)Cl [CCl4, carbon tetrachloride] here?
A: The value was “all increased”.

Q: What about the “accumulation of collagen, Mason's trichrome staining” value (liver tissue [6]; TM4SF5 gene KO mouse compared to the control group, FIG. 22C) of the same compound?
A: The value was “decreased”.

Q: And the “cells in the liver tissue, H&E and Mason's trichrome staining” value (liver tissue [6]; [8])?
A: The value was “died”.

Q: What about the “collagen between the cells” value (liver tissue [6]; [8]) of the same compound?
A: The value was “accumulated”.

Q: What about the “mRNA levels of elastin, laminin α2, α3, α5, γ2, and γ3 chains versus control group not treated” value (liver tissue [6]; administered for 4 or 16 weeks, FIG. 23B) of the same compound?
A: The value was “higher”.
